# Assay results reported in patent US20210179577A1, “AROMATIC SULFONAMIDE DERIVATIVES FOR THE TREATMENT OF ISCHEMIC STROKE” (Bayer Aktiengesellschaft, priority 2017, published 2021).
# pIC50: −log10 of the molar value. Where “and” joins values, the source holds several entries; their conditions need not be identical. Equal entries are not always repeated.
# Tests used:
# Type in all cases: cell-based
# human P2X4 = target: T1, human P2X4 (Homo sapiens, UniProt Q99571); test: Human P2X4 HEK Cell FLIPR Assay; set-up: expressed in transfected cells; host or cells: HEK293; conditions: HEK293 cells, agonist Bz-ATP at EC80; for Emax: percentage of maximal inhibition, read-out: Human P2X4 HEK Cells (FLIPR Assay) avg Efficacy
# T1 sequence (Q99571 1-388): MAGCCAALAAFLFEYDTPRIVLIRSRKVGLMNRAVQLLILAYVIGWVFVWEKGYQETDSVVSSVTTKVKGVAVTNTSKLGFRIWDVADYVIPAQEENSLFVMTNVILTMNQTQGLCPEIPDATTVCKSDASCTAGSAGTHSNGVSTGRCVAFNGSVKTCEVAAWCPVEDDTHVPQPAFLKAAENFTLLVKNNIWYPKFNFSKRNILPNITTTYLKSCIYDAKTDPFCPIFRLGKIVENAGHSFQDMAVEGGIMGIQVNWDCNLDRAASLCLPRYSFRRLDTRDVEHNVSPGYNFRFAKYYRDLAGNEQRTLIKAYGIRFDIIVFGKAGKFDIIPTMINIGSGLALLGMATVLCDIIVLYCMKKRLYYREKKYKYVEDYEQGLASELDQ
# Procedure: HEK293 cells stably expressing human P2X4 were plated in poly-D-lysine-coated 384-well plates at a seeding density of 30000 cells/well and incubated overnight. P2X4 function was assessed by measuring intracellular calcium changes using the calcium-chelating dye Fluo8-AM (Molecular Devices) on a fluorescent imaging plate reader (FLEX/FLIPR station; Molecular Devices). On the day of the assay, the medium was removed and the cells were incubated for 30 min at 37° C. and 5% CO2 in 30 μL of dye buffer (Hank's balanced salt solution, 10 mM HEPES, 1.8 mM CaCl2, 1 mM MgCl2, 2 mM probenecid, 5 mM D-glucose monohydrate, 5 μM Fluo8-AM, pH=7.4). Compounds diluted in probenecid buffer (Hank's balanced salt solution, 10 mM HEPES, 1.8 mM CaCl2, 1 mM MgCl2, 2 mM probenecid, 5 mM D-glucose monohydrate, pH=7.4) were added in a volume of 10 μL and allowed to incubate for 30 min at room temperature. The final assay DMSO concentration was 0.5%. The agonist, Bz-ATP (Tocris), was added in a volume of 10 μL at a concentration representing the EC80 value. The EC80 value of Bz-ATP was determined each assay day prior to compound profiling. The fluorescence was measured for an interval of 120 sec at 2 sec intervals. The excitation and emission wavelengths used to monitor fluorescence were 470-495 nm and 515-575 nm, respectively. The data was analyzed based on the increase in peak relative fluorescence units (RFU) compared to the basal fluorescence and the data was normalized to the agonist control. The compounds were tested in triplicates per plate and mean values were plotted in Excel XL-Fit to determine IC50 values, percentage of maximal inhibition and the Hill coefficients.
# hP2X4 = target: T2, hP2X4 (Homo sapiens, UniProt Q99571); test: Human P2X4 HEK Cell Electrophysiology Assay B (QPatch); conditions: ATP 5 microM, -90 mV; read-out: Human P2X4 HEK Cells (QPatch Electrophysiology) avg IC50
# T2 construct: expressed in transfected cells; host or cells: HEK-293 mito-Photina, clone 2a/4
# T2 sequence (Q99571 1-388): T1 sequence (Q99571 1-388)
# Procedure: Cell culture conditions: HEK-293 mito-Photina pcDNA3(neo-)/pPURO N/pcDNA3_P2RX4, clone 2a/4 (HEK-293 mito-Photina/hP2RX4) cells were cultured in EMEM Minimum Essential Medium Eagle with Earl's salts Balanced Salt Solution (BioWhittaker cat. BE12-125F) supplemented with 5 mL of 200 mM Ultraglutaminel (BioWhittaker cat. BE17-605E/U1), 5 mL of 100× Penicillin/Streptomycin (BioWhittaker cat. DE17-602E; final concentration 1%), 4 mL of 50 mg/mL G418 (Sigma cat. G8168-100 mL; final concentration 400 μg/mL), 10 μL of 10 mg/mL Puromicin (InvivoGen cat. ant-pr-1; final concentration 0.2 μg/mL) and 50 mL of Fetal Bovine Serum (Sigma cat. F7524; final concentration 10%).
# Experimentalprotocol: HEK-293 cell lines are seeded 72 or 96 hours before experiment, at a concentration of 5 or 2.5 million cells, respectively onto a T225 flask. Just before the experiments cells are washed twice with D-PBS w/o Ca2+/Mg2+(Euroclone cat. ECB4004L) and detached from the flask with trypsin-EDTA (Sigma, cat. T4174 diluted 1/10). Cells are then re-suspended in the suspension solution: 25 mL EX-CELL ACF CHO medium (Sigma, cat. C5467); 0.625 mL HEPES (BioWhittaker, cat. BE17-737E); 0.25 mL of 100× Penicillin/Streptomycin (BioWhittaker, cat. DE17-602E), 0.1 mL of Soybean Trypsin Inhibitor 10 mg/mL (Sigma, cat. T6522) and placed on the QPatch 16X.
# Compound preparation and storage: Compound stock solutions (10 mM; 100% DMSO; stored at −20° C.) were used. Fresh solutions from stock (1 or 3 mM, 100% DMSO) were prepared just before the experiments (0.1% final DMSO concentration).
# Patch clamp analysis with QPatch16X (FIG. 1): Standard whole-cell voltage clamp experiments are performed at room temperature using the multihole technology.
# For the voltage clamp experiments on hP2X4, data are sampled at 2 KHz. After establishment of the seal and the passage in the whole cell configuration, the cells are held at −90 mV and the hP2X4 current is evoked by the agonist in the absence (vehicle period, i.e. 0.1% DMSO) or in the presence of the compound under investigation at increasing concentrations; see the application protocol in FIG. 1.
# Output: the maximum inward current induced by the agonist (ATP 5 microM).
# The intracellular solution contained (mM) 135 CsF, 10 NaCl, 1 EGTA, 10 HEPES (pH 7.2 with CsOH) whereas the extracellular solution (mM) 145 NaCl, 4 KCl, 0.5 MgCl2, 1 CaCl2, […], 10 Glucose (pH 7.4 with NaOH).
# For data collection, the Sophion software was used and the analysis was performed off-line using Excel and GraphPad Prism.
# When possible, i.e. when the % of inhibition with the highest concentration tested was more than 50%, the dose-response curves data were fitted with the following equation:
# [X is log of concentration; Y is normalized response (100% down to 0%, decreasing as X increases); Log IC50 same log units as X; HillSlope is unitless slope factor or hill slope]
# endogenous P2X4 channels = target: T3, endogenous P2X4 channels (Homo sapiens, UniProt Q99571); test: Human Monocyte P2X4 Assay (FLIPR); conditions: primary human monocytes, 3 μM BzATP, one value per donor; for Emax: read-out: Human P2X4 Monocytes (FLIPR Assay) Efficacy for different donors; for pIC50: read-out: Human P2X4 Monocytes (FLIPR Assay) IC50 for different donors
# T3 construct: measure calcium influx through endogenous P2X4 channels into primary human monocytes; endogenous in cells; host or cells: primary human monocytes isolated from donor PBMCs
# T3 sequence (Q99571 1-388): T1 sequence (Q99571 1-388)
# Procedure: The principle of the assay is to measure calcium influx through endogenous P2X4 channels into primary human monocytes, following activation by 2′,3′-O-(4-benzoyl-benzoyl)-ATP (Bz-ATP). Intracellular calcium concentration changes were measured with a Flipr™ (Molecular Devices) device using a calcium sensitive dye (Fluo-8). In primary monocytes P2X4 is located at the lysosome membrane, therefore exocytosis has to be triggered to expose P2X4 at the cellular membrane.
# Human peripheral blood mononuclear cells (PBMCs) from anticoagulated blood (blood cells, BC) were isolated via density gradient centrifugation. Whole blood was diluted 1:3 with PBS. Samples of 30 mL were layered carefully on top of 15 mL Biocoll (BIOCHROM) in 50 mL centrifuge tubes (Falcon). Tubes were centrifuged at 914×g for 25 min at RT without brake. The PBMC layer was removed with a 10 mL pipette and transferred into tubes with ice-cold PBS in a total volume of 50 mL. Cells were washed twice by pelleting at 300×g at 4° C., for 10 min and for 5 min respectively. PBMCs were re-suspended in 10 mL medium (X-vivo, Biozym Scientific) and counted in a Neubauer chamber.
# Monocytes were isolated by negative selection using the Monocyte isolation kit II from Miltenyi (#130-091-153) according to the instructions. Isolation should be done fast and cells and solutions should be kept on ice at any time. PBMCs in batches of 10exp8 cells were pelleted (300×g, 10 min) and re-suspended with 300 μL MACS buffer in a 50 mL Falcon tube. FcR Blocking reagent (100 μl) and Biotin-Ab (100 μl) were added, mixed and incubated on ice for 10 min. MACS buffer (300 μL) and anti-Biotin Micro-beads (100 μL) were added, mixed and incubated on ice for 15 min. Cells were washed by pelleting (300×g for 10 min) and re-suspended in 500 μL MACS buffer. For each batch one separation column was placed in the MACS separator and rinsed with 3 mL MACS buffer. The cell suspension was added to the column, followed by 3×3 mL MACS buffer for washing, and the eluent containing the monocytes was collected. Cells were pelleted (300×g for 10 min), re-suspended in X-vivo medium and counted. Monocytes were seeded into fibronectin-coated micro-plates (384-well, black, flat transparent bottom; Corning #3848) at a density of 30,000 cells/well in 50 μL, and cultivated over night (37° C., 5% CO2).
# Test substances were dissolved in 100% DMSO at a stock concentration of 10 mM and stored at −20° C. in aliquots. Serial dilutions (2×) were prepared in DMSO and diluted 500× with assay buffer to generate the antagonist plate. In the Flipr measurement, 10 μL per well were transferred (4× dilution) and a final top concentrations of 5 μM and 0.05% DMSO were obtained in the assay. Agonist BzATP was stored at 10 mM in aliquots and diluted to an intermediate concentration of 15 μM to generate the agonist plate. In the Flipr measurement, 10 μL per well were transferred (5× dilution) so that a final assay concentration of 3 μM was obtained.
# For the experiment, the medium of the cell plate was discarded manually and 70 μL/well loading buffer was added and incubated for 1 h (37° C., 5% CO2). Loading buffer contained HBSS (w/o calcium/magnesium), 10 mM Hepes pH 7.4, 5 μM Fluo-8 (AM) (Tebu-bio) and 50 mM methylamine (Sigma) to trigger exocytosis. Loading buffer was discarded manually and 30 μL/well low-calcium assay buffer (5 mM KCl, 145 mM NaCl, 0.5 mM CaCl2), 13 mM glucose, 10 mM Hepes pH 7.4) was added. The antagonist plate was transferred (10 μL/well) and after 15 min at RT the agonist plate (10 μL/well) was transferred.
# Agonist addition was recorded for 240 seconds after a 10 second baseline. For analysis, a baseline correction was applied, and the maximum of the curve was extracted. Data were normalized towards 0% inhibition (signal at 3 μM BzATP) and 100% inhibition (absence of BzATP stimulation) and fitted with a four-parameter sigmoidal inhibition curve using Prism Graph Pad to obtain IC50 values.
compound,measurement,setting,value
"NS(=O)(=O)c1cc(NC(=O)Cc2ccccc2F)ccc1-n1cc(C(F)(F)F)cn1 [Example 20, 2-(2-Fluorophenyl)-N-{3-sulfamoyl-4-[4-(trifluoromethyl)-1H-pyrazol-1-yl]phenyl}-acetamide]",pIC50,human P2X4,6.85
same,pIC50,hP2X4,6.71
"NS(=O)(=O)c1cc(NC(=O)Cc2ccccc2Cl)ccc1-n1cnc(Cl)n1 [Example 24, 2-(2-Chlorophenyl)-N-[4-(3-chloro-1H-1,2,4-triazol-1-yl)-3-sulfamoylphenyl]-acetamide]",pIC50,human P2X4,7.35
same,Emax,endogenous P2X4 channels,79%
same,pIC50,endogenous P2X4 channels,6.85 and 7.47 and 7.04
"NS(=O)(=O)c1cc(NC(=O)Cc2ccccc2Cl)ccc1-n1cc(Cl)cn1 [Example 25, 2-(2-Chlorophenyl)-N-[4-(4-chloro-1H-pyrazol-1-yl)-3-sulfamoylphenyl]acetamide]",pIC50,human P2X4,7.59
same,pIC50,hP2X4,6.65
"NS(=O)(=O)c1cc(NC(=O)Cc2ccccc2Cl)ccc1-n1cc(Br)cn1 [Example 28, N-[4-(4-Bromo-1H-pyrazol-1-yl)-3-sulfamoylphenyl]-2-(2-chlorophenyl)acetamide]",pIC50,human P2X4,7.51
same,Emax,human P2X4,90%
same,pIC50,endogenous P2X4 channels,7.11 and 6.79
"COc1ccc(CC(=O)Nc2ccc(-n3cc(Cl)cn3)c(S(N)(=O)=O)c2)cc1 [Example 170, N-[4-(4-Chloro-1H-pyrazol-1-yl)-3-sulfamoylphenyl]-2-(4-methoxyphenyl)acetamide]",pIC50,human P2X4,6.90
same,Emax,human P2X4,70%
same,Emax,endogenous P2X4 channels,60%
same,pIC50,endogenous P2X4 channels,6.52 and 6.74 and 6.96
"NS(=O)(=O)c1cc(NC(=O)Cc2ccccc2F)cnc1-c1cnn(C(F)F)c1 [Example 321, N-{6-[1-(Difluoromethyl)-1H-pyrazol-4-yl]-5-sulfamoylpyridin-3-yl}-2-(2-fluorophenyl)acetamide]",pIC50,human P2X4,7.06
same,pIC50,hP2X4,6.64
"NS(=O)(=O)c1cc(NC(=O)Cc2ccccc2Cl)ccc1-c1cncc(C(F)(F)F)c1 [Example 331, 2-(2-Chlorophenyl)-N-{3-sulfamoyl-4-[5-(trifluoromethyl)pyridin-3-yl]phenyl}-acetamide]",pIC50,human P2X4,7.60
same,pIC50,hP2X4,6.81
"NS(=O)(=O)c1cc(NC(=O)Cc2ccccc2Cl)ccc1-c1cnn(C2CC2)c1 [Example 349, 2-(2-Chlorophenyl)-N-[4-(1-cyclopropyl-1H-pyrazol-4-yl)-3-sulfamoylphenyl]acetamide]",pIC50,human P2X4,7.43
same,pIC50,hP2X4,6.93
"NS(=O)(=O)c1cc(NC(=O)Cc2ccccc2Cl)cnc1-n1cc(Cl)cn1 [Example 387, 2-(2-Chlorophenyl)-N-[6-(4-chloro-1H-pyrazol-1-yl)-5-sulfamoylpyridin-3-yl]acetamide]",pIC50,human P2X4,7.47
same,Emax,endogenous P2X4 channels,35%
same,pIC50,endogenous P2X4 channels,6.91 and 6.98
